Results reported in patent US9403823B2, “Protein kinase inhibitors” (ORIBASE PHARMA, priority 2012, dated 2016).

Experiments:
VEGFR1 = molecular target: T1, VEGFR1 (Homo sapiens, UniProt P17948); assay: In vitro kinase assay (Z'-LYTE), VEGFR1; format: biochemical; conditions: read-out: % of inhibition of the kinase compared to the control
T1 construct: purchased Invitrogen
Procedure: (§1) 1) In Vitro Kinase Assays (Table 10 to Table 21)
(§2) The inhibitory activity of the compounds on several kinases including BRAF, EGFR (ErbB1), EGFR (ErbB1) T790M L858R, FGFR2, KDR (VEGFR2), PDGFRA (PDGFR alpha), SRC and other was evaluated by Invitrogen using the Z′-LYTE® technology. Briefly, the Z′-LYTE® biochemical assay employs a fluorescence-based, coupled-enzyme format and is based on the differential sensitivity of phosphorylated and non-phosphorylated peptides to proteolytic cleavage. The peptide substrate is labeled with two fluorophores—one at each end—that make up a FRET pair. A ratiometric method, which calculates the ratio (the Emission Ratio) of donor emission to acceptor emission after excitation of the donor fluorophore at 400 nm, is used to quantitate reaction progress.
(§3) The compounds are screened in 1% DMSO (final) in the well. For 10 point titrations, 3-fold serial dilutions are conducted from the starting concentration. All Peptide/Kinase Mixtures are diluted to a 2× working concentration in the appropriate Kinase Buffer. All ATP Solutions are diluted to a 4× working concentration in Kinase Buffer (50 mM HEPES pH 7.5, 0.01% BRIJ-35, 10 mM MgCl2, 1 mM EGTA). ATP Km apparent is previously determined using a Z′-LYTE® assay. […]

PDGFRA (PDGFR alpha) = molecular target: T2, PDGFRA (PDGFR alpha) (Homo sapiens, UniProt P16234); assay: In vitro kinase assay (Z'-LYTE), PDGFRA; format: biochemical; conditions: read-out: % of inhibition of the kinase compared to the control
T2 construct: purchased Invitrogen
Outline: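 Inhibition read as emission ratio (donor/acceptor, 400 nm excitation) of a FRET-labelled peptide, phosphorylation protecting it from proteolytic cleavage. Compounds tested once at 100 nM for VEGFR1 and PDGFRA, at 10 μM for ABL and ABL T315I, 1% DMSO final. ATP at previously determined apparent Km.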

PDGFRB = molecular target: T3, PDGFRB (Homo sapiens, UniProt P09619); assay: In vitro kinase assay (Z'-LYTE), PDGFRB; format: biochemical; conditions: read-out: % of inhibition of the kinase compared to the control
T3 construct: purchased Invitrogen
Procedure: as §1, §2, §3

ABL T315I = molecular target: T4, ABL T315I (Homo sapiens, UniProt P00519, T315I); assay: In vitro kinase assay (Z'-LYTE), ABL T315I; format: biochemical; conditions: read-out: % of inhibition of the kinase compared to the control
T4 construct: purchased Invitrogen
Procedure: as §1, §2
(§4) The compounds are screened in 1% DMSO (final) in the well. For 10 point titrations, 3-fold serial dilutions are conducted from the starting concentration. All Peptide/Kinase Mixtures are diluted to a 2× working concentration in the appropriate Kinase Buffer. All ATP Solutions are diluted to a 4× working concentration in Kinase Buffer (50 mM HEPES pH 7.5, 0.01% BRIJ-35, 10 mM MgCl2, 1 mM EGTA). ATP Km apparent is previously determined using a Z′-LYTE® assay.
(§5) Each compound was incubated at a concentration of 100 nM (excepted to test the activity against ABL and ABL T315I for which the compounds were incubated at a concentration of 10 μM) and the tables 10 to 21 summarize the results obtained showing the inhibitory power of a compound.

A549 cell line = assay: In vitro cell proliferation assay (MTT), A549; format: cell-based; conditions: Homo sapiens; A549, 72 hr, MTT; read-out: EC50, anti-proliferative activity
Outline: (§6)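 Cancer cell lines were seeded at 5×10^3 cells per well and HRMEC at 1×10^4 cells per well, then incubated in duplicate with escalating compound concentrations (10 nM to 3 μM) for 72 hr. Proliferation was read by MTT.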

FGFR1 = molecular target: T5, FGFR1 (Homo sapiens, UniProt P11362); assay: In vitro kinase assay (Z'-LYTE), FGFR1; format: biochemical; conditions: read-out: % of inhibition of the kinase compared to the control
T5 construct: purchased Invitrogen
Procedure: as §1, §2, §3

ABL = molecular target: T6, ABL (Homo sapiens, UniProt P00519); assay: In vitro kinase assay (Z'-LYTE), ABL; format: biochemical; conditions: read-out: % of inhibition of the kinase compared to the control
T6 construct: purchased Invitrogen
Procedure: as §1, §2, §4, §5

BRAF = molecular target: T7, BRAF (Homo sapiens, UniProt P15056); assay: In vitro kinase assay (Z'-LYTE), BRAF; format: biochemical; conditions: read-out: % of inhibition of the kinase compared to the control
T7 construct: purchased Invitrogen
Outline: (§7)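 FRET-based Z'-LYTE coupled-enzyme assay: kinase phosphorylates a dual-fluorophore peptide, unphosphorylated peptide is protease-cleaved, and donor/acceptor emission ratio after 400 nm excitation quantifies progress. Buffer 50 mM HEPES pH 7.5, 10 mM MgCl2, 1 mM EGTA, 0.01% BRIJ-35; 1% DMSO final. Single compound concentration: 100 nM, or 10 μM for ABL and ABL T315I.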

FGFR2 = molecular target: T8, FGFR2 (Homo sapiens, UniProt P21802); assay: In vitro kinase assay (Z'-LYTE), FGFR2; format: biochemical; conditions: read-out: % of inhibition of the kinase compared to the control
T8 construct: purchased Invitrogen
Outline: as §7

EGFR (ErbB1) = molecular target: T9, EGFR (ErbB1) (Homo sapiens, UniProt P00533); assay: In vitro kinase assay (Z'-LYTE), EGFR (ErbB1); format: biochemical; conditions: read-out: % of inhibition of the kinase compared to the control
T9 construct: purchased Invitrogen
Outline: as §7

KDR (VEGFR2) = molecular target: T10, KDR (VEGFR2) (Homo sapiens, UniProt P35968); assay: In vitro kinase assay (Z'-LYTE), KDR (VEGFR2); format: biochemical; conditions: read-out: % of inhibition of the kinase compared to the control
T10 construct: purchased Invitrogen
Outline: as §7

SRC = molecular target: T11, SRC (Homo sapiens, UniProt P12931); assay: In vitro kinase assay (Z'-LYTE), SRC; format: biochemical; conditions: read-out: % of inhibition of the kinase compared to the control
T11 construct: purchased Invitrogen
Outline: as §7

EGFR (ErbB1) T790M L858R = molecular target: T12, EGFR (ErbB1) T790M L858R (Homo sapiens, UniProt P00533, L858R/T790M); assay: In vitro kinase assay (Z'-LYTE), EGFR (ErbB1) T790M L858R; format: biochemical; conditions: read-out: % of inhibition of the kinase compared to the control
T12 construct: purchased Invitrogen
Outline: as §7

BxPC-3 cell line = assay: In vitro cell proliferation assay (MTT), BxPC-3; format: cell-based; conditions: Homo sapiens; BxPC-3, 72 hr, MTT; read-out: EC50, anti-proliferative activity
Procedure: 2) In Vitro Cell Proliferation Assays (Table 22 to Table 35)
Cancer cell lines (5×10^3 cells per well) or HUVEC (1×10^4 cells per well) or HRMEC (1×10^4 cells per well) were distributed in 96-well plates and incubating in duplicate with escalating concentrations (10 nM to 3 μM) of compounds for 72 hr. Cell proliferation was measured using MTT (3[4,5-dimethylthiazol-2-yl]-2,5-diphenyltetrazolium bromide).

H1975 cell line = assay: In vitro cell proliferation assay (MTT), H1975; format: cell-based; conditions: Homo sapiens, NCI-H1975; H1975, 72 hr, MTT; read-out: EC50, anti-proliferative activity
Outline: as §6

HT29 cell line = assay: In vitro cell proliferation assay (MTT), HT29; format: cell-based; conditions: Homo sapiens, HT-29; HT29, 72 hr, MTT; read-out: EC50, anti-proliferative activity
Outline: as §6

HepG2 cell line = assay: In vitro cell proliferation assay (MTT), HepG2; format: cell-based; conditions: Homo sapiens; HepG2, 72 hr, MTT; read-out: EC50, anti-proliferative activity
Outline: as §6

HUVEC = assay: In vitro cell proliferation assay (MTT), HUVEC; format: cell-based; conditions: Homo sapiens, 72 hr, MTT, read-out: EC50, anti-proliferative activity
Outline: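 HUVEC cells were plated at 1×10^4 cells per well in 96-well plates and exposed in duplicate to increasing compound concentrations from 10 nM to 3 μM for 72 hr. Proliferation was then quantified with MTT (3[4,5-dimethylthiazol-2-yl]-2,5-diphenyltetrazolium bromide) to determine anti-proliferative activity.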

T11 sequence (P12931 whole entry): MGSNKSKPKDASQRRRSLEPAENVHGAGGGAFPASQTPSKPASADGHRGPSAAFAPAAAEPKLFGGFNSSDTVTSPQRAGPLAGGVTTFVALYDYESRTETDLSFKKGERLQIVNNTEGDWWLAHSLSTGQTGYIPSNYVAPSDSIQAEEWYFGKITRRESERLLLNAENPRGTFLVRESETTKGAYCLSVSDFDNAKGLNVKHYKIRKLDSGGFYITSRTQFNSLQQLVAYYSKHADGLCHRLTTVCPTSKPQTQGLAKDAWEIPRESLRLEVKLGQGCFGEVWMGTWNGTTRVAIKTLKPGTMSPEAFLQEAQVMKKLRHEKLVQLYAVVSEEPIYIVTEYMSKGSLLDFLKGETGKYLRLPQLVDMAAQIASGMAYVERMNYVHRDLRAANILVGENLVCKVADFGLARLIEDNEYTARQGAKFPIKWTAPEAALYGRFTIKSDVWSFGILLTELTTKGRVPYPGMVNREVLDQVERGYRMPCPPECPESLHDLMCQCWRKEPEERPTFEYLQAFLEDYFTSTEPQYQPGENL
T3 sequence (P09619 33-1106): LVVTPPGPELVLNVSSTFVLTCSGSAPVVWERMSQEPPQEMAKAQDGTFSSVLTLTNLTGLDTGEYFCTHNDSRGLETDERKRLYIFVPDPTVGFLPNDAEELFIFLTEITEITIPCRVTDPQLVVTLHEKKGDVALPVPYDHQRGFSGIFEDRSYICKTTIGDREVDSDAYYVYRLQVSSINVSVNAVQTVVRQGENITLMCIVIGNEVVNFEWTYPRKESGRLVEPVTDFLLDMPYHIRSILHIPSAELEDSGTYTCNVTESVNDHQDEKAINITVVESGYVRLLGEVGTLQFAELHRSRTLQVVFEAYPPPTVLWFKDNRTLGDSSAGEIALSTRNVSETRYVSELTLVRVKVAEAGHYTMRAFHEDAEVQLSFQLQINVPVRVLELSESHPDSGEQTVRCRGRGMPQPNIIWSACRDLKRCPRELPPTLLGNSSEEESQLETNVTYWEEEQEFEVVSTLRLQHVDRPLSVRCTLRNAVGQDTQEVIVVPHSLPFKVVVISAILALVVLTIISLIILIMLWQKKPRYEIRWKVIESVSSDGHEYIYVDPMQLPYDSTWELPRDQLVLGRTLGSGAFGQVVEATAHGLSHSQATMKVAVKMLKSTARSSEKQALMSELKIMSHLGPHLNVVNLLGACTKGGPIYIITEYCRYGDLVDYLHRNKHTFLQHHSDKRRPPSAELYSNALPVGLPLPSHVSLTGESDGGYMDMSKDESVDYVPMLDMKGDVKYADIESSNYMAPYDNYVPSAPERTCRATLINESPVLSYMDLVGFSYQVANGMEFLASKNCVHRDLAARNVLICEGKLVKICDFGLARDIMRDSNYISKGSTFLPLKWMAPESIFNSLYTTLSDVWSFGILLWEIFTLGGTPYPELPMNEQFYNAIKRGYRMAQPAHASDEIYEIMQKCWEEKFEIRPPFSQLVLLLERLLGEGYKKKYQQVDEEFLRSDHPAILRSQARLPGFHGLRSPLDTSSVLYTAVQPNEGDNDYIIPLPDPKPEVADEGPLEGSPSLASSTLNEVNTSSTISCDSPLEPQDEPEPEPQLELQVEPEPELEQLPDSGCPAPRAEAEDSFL
T12 sequence (P00533 25-1210 T790M/L858R): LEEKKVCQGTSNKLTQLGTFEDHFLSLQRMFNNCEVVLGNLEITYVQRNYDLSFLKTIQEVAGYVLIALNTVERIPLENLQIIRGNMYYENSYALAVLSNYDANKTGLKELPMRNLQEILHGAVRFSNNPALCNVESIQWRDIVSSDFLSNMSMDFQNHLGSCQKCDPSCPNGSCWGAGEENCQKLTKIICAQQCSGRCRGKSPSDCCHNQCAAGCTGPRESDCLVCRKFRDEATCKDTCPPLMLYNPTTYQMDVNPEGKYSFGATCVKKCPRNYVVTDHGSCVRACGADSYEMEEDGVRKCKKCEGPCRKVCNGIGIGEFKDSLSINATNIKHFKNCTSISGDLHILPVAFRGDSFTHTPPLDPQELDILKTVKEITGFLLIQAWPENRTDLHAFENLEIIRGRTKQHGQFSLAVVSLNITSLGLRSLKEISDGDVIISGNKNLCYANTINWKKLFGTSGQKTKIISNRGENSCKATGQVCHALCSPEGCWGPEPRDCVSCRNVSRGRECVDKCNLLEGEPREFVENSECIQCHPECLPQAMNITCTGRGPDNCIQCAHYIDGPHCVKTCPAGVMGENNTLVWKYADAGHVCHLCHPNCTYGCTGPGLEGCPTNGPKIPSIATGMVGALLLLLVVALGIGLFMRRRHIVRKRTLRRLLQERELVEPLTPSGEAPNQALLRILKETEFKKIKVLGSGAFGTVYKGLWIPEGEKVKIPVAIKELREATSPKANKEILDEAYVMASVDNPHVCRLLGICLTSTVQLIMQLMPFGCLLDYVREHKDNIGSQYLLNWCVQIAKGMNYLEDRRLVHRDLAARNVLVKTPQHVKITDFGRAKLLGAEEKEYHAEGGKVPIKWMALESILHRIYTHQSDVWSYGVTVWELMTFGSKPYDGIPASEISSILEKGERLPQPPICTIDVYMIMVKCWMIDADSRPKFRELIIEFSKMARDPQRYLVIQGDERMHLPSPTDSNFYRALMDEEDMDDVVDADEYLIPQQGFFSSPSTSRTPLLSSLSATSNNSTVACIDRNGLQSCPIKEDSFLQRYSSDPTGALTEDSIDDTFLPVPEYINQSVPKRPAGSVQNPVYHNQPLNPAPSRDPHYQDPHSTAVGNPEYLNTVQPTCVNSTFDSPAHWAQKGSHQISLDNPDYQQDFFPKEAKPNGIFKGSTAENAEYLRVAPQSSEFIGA
T1 sequence (P17948 27-1338): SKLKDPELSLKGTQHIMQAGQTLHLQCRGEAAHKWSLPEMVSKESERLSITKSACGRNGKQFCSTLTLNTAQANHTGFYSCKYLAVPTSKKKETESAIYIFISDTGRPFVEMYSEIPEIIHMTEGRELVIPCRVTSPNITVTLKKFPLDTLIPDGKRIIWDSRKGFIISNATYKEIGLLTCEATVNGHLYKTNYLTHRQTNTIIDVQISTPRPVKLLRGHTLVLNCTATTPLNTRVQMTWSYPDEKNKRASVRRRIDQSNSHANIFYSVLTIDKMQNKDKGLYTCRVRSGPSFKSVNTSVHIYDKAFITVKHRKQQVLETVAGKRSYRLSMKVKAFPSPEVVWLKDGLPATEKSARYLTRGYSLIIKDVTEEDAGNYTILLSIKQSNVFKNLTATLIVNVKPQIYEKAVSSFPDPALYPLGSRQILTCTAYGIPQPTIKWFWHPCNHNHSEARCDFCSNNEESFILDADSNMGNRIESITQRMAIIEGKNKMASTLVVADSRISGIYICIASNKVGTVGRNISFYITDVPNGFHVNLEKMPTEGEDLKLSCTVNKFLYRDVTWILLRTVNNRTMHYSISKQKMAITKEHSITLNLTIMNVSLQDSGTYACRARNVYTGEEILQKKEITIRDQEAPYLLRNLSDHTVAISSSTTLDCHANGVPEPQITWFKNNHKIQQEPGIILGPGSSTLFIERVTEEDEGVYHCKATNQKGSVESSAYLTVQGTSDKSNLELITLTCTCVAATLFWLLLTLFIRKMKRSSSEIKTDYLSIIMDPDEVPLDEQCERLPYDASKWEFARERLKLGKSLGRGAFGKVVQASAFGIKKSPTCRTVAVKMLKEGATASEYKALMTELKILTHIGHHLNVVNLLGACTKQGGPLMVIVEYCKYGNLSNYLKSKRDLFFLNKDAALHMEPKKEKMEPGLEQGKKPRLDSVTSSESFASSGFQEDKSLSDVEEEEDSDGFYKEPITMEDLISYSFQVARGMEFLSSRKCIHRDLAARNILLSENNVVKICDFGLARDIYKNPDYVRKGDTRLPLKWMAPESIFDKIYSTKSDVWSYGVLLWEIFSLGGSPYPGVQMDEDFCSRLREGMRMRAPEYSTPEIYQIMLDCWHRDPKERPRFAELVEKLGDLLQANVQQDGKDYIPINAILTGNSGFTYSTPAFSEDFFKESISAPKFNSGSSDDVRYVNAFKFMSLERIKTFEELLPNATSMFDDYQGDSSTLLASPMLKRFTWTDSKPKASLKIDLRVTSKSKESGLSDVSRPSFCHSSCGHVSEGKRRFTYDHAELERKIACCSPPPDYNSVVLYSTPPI
T7 sequence (P15056 whole entry): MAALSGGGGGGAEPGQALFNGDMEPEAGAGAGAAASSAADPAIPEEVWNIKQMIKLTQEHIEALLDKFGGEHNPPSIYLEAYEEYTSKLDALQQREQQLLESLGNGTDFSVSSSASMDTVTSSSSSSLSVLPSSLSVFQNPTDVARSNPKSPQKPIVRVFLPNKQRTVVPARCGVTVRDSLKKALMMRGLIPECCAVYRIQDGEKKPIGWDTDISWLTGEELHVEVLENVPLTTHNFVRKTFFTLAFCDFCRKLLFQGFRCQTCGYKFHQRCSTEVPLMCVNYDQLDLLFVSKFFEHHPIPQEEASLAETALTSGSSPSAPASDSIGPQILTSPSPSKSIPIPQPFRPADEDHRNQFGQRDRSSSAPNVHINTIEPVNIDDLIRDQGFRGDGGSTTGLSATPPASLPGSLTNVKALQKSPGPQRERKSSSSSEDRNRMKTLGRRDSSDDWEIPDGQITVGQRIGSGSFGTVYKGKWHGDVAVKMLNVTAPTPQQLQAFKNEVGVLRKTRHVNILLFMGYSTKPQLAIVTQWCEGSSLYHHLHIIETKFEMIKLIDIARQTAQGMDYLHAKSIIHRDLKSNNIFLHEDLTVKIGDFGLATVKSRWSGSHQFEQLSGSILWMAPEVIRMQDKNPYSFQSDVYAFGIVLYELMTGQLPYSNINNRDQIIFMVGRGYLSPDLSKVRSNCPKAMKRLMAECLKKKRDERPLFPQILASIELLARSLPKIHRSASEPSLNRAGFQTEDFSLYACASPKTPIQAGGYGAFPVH

Row | inhibition at 0.1 µM (VEGFR1) [%] | inhibition at 0.1 µM (PDGFRA (PDGFR alpha)) [%] | inhibition at 0.1 µM (PDGFRB) [%] | inhibition at 10 µM (ABL T315I) [%] | EC50 (A549 cell line) [nM] | inhibition at 0.1 µM (FGFR1) [%] | inhibition at 10 µM (ABL) [%] | inhibition at 0.1 µM (BRAF) [%] | inhibition at 0.1 µM (FGFR2) [%] | inhibition at 0.1 µM (EGFR (ErbB1)) [%] | inhibition at 0.1 µM (KDR (VEGFR2)) [%] | inhibition at 0.1 µM (SRC) [%] | inhibition at 0.1 µM (EGFR (ErbB1) T790M L858R) [%] | EC50 (BxPC-3 cell line) [nM] | EC50 (H1975 cell line) [nM] | EC50 (HT29 cell line) [nM] | EC50 (HepG2 cell line) [nM] | SMILES | EC50 (HUVEC) [nM]
1 | ≥ 50 | ≥ 50 | < 50 | < 50 | ≥ 1000 | < 50 | ≥ 50 | < 50 | < 50 | ≥ 50 | ≥ 50 | ≥ 50 | ≥ 50 | ≥ 1000 |  |  |  | Cc1cn(-c2cc(C(=O)Nc3ccc(C)c(CNc4cnc5[nH]c(C(=O)O)cc5c4)c3)cc(C(F)(F)F)c2)cn1 [OR0653, 5-{2-Methyl-5-[3-(4-methyl-imidazol-1-yl)-5-trifluoromethyl-benzoylamino]-benzylamino}-1H-pyrrolo[2,3-b]pyridine-2-carboxylic acid] | 
2 | ≥ 50 | ≥ 50 | ≥ 50 | ≥ 50 | ≥ 1000 | ≥ 50 | ≥ 50 | < 50 | ≥ 50 | ≥ 50 | ≥ 50 | ≥ 50 | ≥ 50 | ≥ 1000 | ≥ 1000 | ≥ 1000 | ≥ 1000 | Cc1ccc(NC(=O)c2ccc(CN3CCN(C)CC3)c(C(F)(F)F)c2)cc1CNc1cnc2[nH]c(C(=O)O)cc2c1 [OR0623, 5-{2-Methyl-5-[4-(4-methyl-piperazin-1-ylmethyl)-3-trifluoromethyl-benzoylamino]-benzylamino}-1H-pyrrolo[2,3-b]pyridine-2-carboxylic acid] | ≥ 1000
